Measurements published in a melting point compilation (Tetko et al.; mined from patent text by program, amines drawn as free bases though some values may be those of a salt).

SMILES | melting point
Cc1c(-c2cc(C(F)(F)F)cc(C(F)(F)F)c2)c(F)cc2nc(N)nc(N)c12 | 224 to 225 °C
CC(CO)(CO)NS(=O)(=O)c1cccc(NC(=O)c2cnn3c(C(F)(F)F)cc(-c4ccc(C(F)(F)F)cc4)nc23)c1 | 248 °C
CCCSc1c(C=NO)c(=O)n(C)c(=O)n1C | 161 to 162 °C
CCN(CC)Cc1nc(-c2ncn3c2CN(C)C(=O)c2c(Cl)cccc2-3)no1 | 250 to 252 °C
Cc1cc(=O)n(-c2cc(OC(C)C)c(C)cc2F)c(=O)o1 | 122 to 124 °C
Nc1ccc(-c2noc(-c3cnn4c(C(F)F)cc(-c5ccc(C(F)(F)F)c(Cl)c5)nc34)n2)cn1 | 252 °C
Cc1cccc(NC(=O)NCC(=O)N(CC(=O)Nc2cccc3cccnc23)c2ccccc2)c1 | 170 °C
COc1ccc(C=NCC(OC)OC)cc1OC | 50 to 52 °C
CC=CC=C1SC(=S)N(CC(=O)O)C1=O | 216 to 218 °C
NC(=O)c1[nH]c2ccccc2c1-c1ccc(NS(=O)(=O)c2cccc(Cl)c2Cl)cc1 | > 260 °C
CN(Cc1ccccc1)C1Cc2cccc3[nH]c(=O)n(c23)C1 (stereo unspecified) | 145 to 149 °C
CC(C)(C)c1ccc(OCC(=O)Nc2nnc(-c3cccc(Oc4cccc(C(F)(F)F)c4)c3)s2)cc1 | 179 to 180 °C
COc1cc(CCCC2OC(=O)NC2=O)ccc1OCc1nc(-c2ccccc2)no1 (stereo unspecified) | 110 to 111 °C
CCOC(=O)c1ccc2cc(-c3cccc4ccccc34)ccn2c1=O | 245 to 247 °C
O=C1c2cc(F)ccc2-n2c1nc1cccc(F)c1c2=O | 323 to 325 °C
CN(C)C(=O)c1ccccc1[N+](=O)[O-] | 74 to 76 °C
Clc1ccc(C2=NNCC2n2cc(Cl)cn2)cc1 (stereo unspecified) | 176 °C
COC(=O)/C=C(\Oc1ccc(F)cc1)C(=O)OC | 60 to 61 °C
CSc1ncncc1C(Cl)c1ccccc1F (stereo unspecified) | 144 to 145 °C
O=C(O)Cc1ccc(OCCNC(=O)C2Cc3ccccc3N2S(=O)(=O)c2ccc(-c3ccc(Cl)cc3)c(C(F)(F)F)c2)cc1 (stereo unspecified) | 92 °C
CC(C)c1cc(C(C)C)c(CC(=O)NS(=O)(=O)Oc2c(C(C)C)cc(NS(C)(=O)=O)cc2C(C)C)c(C(C)C)c1 | 164 to 166 °C
O=C(NC1CCN(CCc2ccccc2)CC1)c1ccccc1 | 164 to 167 °C
COc1ccc(S(=O)(=O)C2(CCC/C=C/c3ccc(Cl)cc3)SC(=O)NC2=O)cc1 (stereo unspecified) | 182 to 184 °C

SMILES | melting point
COc1ccc(CCNC[C@H](O)COc2ccc(-c3nc(Br)c[nH]3)cc2Cl)cc1OC | 172 to 174 °C
O=C(NCCCCCCCCNC(=O)c1ccc2c(c1)OCO2)c1ccc2c(c1)OCO2 | 179 to 180 °C
CC1=Nc2ccc(F)c(F)c2OC1 | 51.2 °C
COc1ccc(S(=O)(=O)n2ccc3ccnc(-c4ccc(O)cc4)c32)cc1 | 179 to 182 °C
Cc1c(C)c(N2Cc3ccccc3C2)c(C)c2c1OC(C)(C)C2c1ccc(F)cc1 (stereo unspecified) | 204 to 205 °C
CC(C)(C)NC(=O)NC1=CC(=O)CCC1 | 223 to 225 °C
COc1ccc(OCc2ccccc2)cc1CC#N | 63 to 65 °C
CC(=O)ON(C)C(=O)/C=C/c1ccc(-n2c(C)ccc2C)cc1 | 120 to 121 °C
CCCCOC(=O)N1CCNCC1 | 98 °C
COc1nc2cc(Br)cc(CNC(=O)C(=O)O)c2nc1OC | > 300 °C
CN(C)C(=S)CCC(c1ccccc1)(c1ccccc1)c1ccccc1 | 114 to 116 °C
Cn1cc(Br)nc(Br)c1=O | 94 to 95 °C
O=C(Nc1ccc(Cl)cc1Cl)c1ccccc1SSc1ccccc1C(=O)Nc1ccc(Cl)cc1Cl | 227 to 228 °C
N[C@@H](Cc1ccc(C(F)(F)F)cc1)[C@H](O)c1ccc(Cl)nc1 (racemic) | 103 to 104 °C
CCCNC(=O)N1C2=NC(C)(C)N(CCC)C(=O)N2c2ccccc21 | 72 to 74 °C
CC(=O)OC1CC(C)(C)N(OC(=O)C=Cc2ccccc2)C(C)(C)C1 | 130 to 132 °C
CCCCCCCCCCCCCCOc1ccc(C(=O)N(Cc2cccnc2)C(C)=O)cc1 | 46 to 48 °C
O=S(=O)(c1ccccc1)c1c[nH]c2ncccc12 | > 250 °C
CC1(C)CCC(C)(C)c2cc(NCC(=O)O)ccc21 | > 360 °C
COc1cc(-c2ccc(C#N)cc2)oc1-c1ccc(C#N)cc1 | 257 to 258 °C
O=C(CCNC(=O)OCc1ccccc1)NC1C(C(=O)O)OC(n2cnc3c(NC(=O)c4ccccc4)ncnc32)C1O (stereo unspecified) | 136 to 141 °C
COc1ccc2c(c1)C(=O)C(Oc1cccnc1)CO2 (stereo unspecified) | 116 to 117 °C
O=C(NC1CC1)c1cccc(-c2ccc3ccn(-c4ccc(Cl)cc4Cl)c3c2)c1 | 273 to 274 °C

SMILES | melting point
COC(=O)c1cn(-c2ccc(Oc3ccc(C)cc3O)cc2)nn1 | 148 to 151 °C
CN(C)C(=O)COc1cc(Cl)ccc1C(=O)O | 141 to 142 °C
COC(=O)c1ccc(C2(C(=O)Oc3ccc(C(=O)NO)cc3)CCCCC2)cc1 | 129 to 131 °C
CCCC(NS(=O)(=O)NC(=O)OCc1ccccc1)C(=O)OC (stereo unspecified) | 76 to 78 °C
COC(=O)c1cccc(-c2cn(C)cc(-c3cccc(C)c3)c2=O)c1 | 180 to 183 °C
CNS(=O)(=O)Cc1ccc(NN=CCCC#N)cc1 | 124 to 125 °C
O=P(O)(O)Cc1ccc(C(F)(F)F)cc1 | 163 to 164 °C
COc1ccc(C(C#N)C(=O)C(=O)C(C#N)c2ccccc2)cc1 (stereo unspecified) | 256 to 258 °C
CN(C)C(=O)Nc1ccc(NCc2ccc(Cl)cc2Cl)cc1N | 147 to 152 °C
CC(=O)NCCn1cccc1 | 59 to 60 °C
O=[N+]([O-])c1cc(O)cc2cc(-c3ccc(O)cc3)oc12 | 236 to 237 °C
CCCCCCCCCCCCCCCCCCCCCCNc1cc(N)c([N+](=O)[O-])cc1[N+](=O)[O-] | 108 to 110 °C
COC(=O)CC(NC1CC1)=C(C(=O)OC)C(=O)C(F)(F)C(F)(F)F | 32 to 34 °C
CC(C)N(CCOc1ccc(-c2nnc(CSCCOc3ccccc3)o2)cc1)C(C)C | 42 to 45 °C
O=S(=O)(c1ccccc1)c1ccc(-c2ccccc2)s1 | 115 to 116 °C
Cc1cc(-c2ccccc2)nc(SSc2nc(-c3ccccc3)cc(C)c2C#N)c1C#N | 200 to 201 °C
COC(=O)CCC(=O)c1cccc(Cl)c1O | 60 to 62 °C
Nc1ccc(C(F)(F)F)cc1S(N)(=O)=O | 142 to 143 °C
CCCCCCc1ccc(CCCCC(COC(C)=O)(COC(C)=O)NC(C)=O)cc1 | 61 to 64 °C
CC(CCC(=O)Cl)C1CCC2C3CCC4CCCCC4(C)C3CCC12C (stereo unspecified) | 104 to 106 °C
CC(C)(C)c1ccc(/C=C/C(=O)Nc2ccc3ocnc3c2)cc1 | 177 °C
O=C1C(Cl)=C(Cl)C(=O)c2ncccc21 | 221 to 222 °C
CN1C(=O)N(c2ccc(C#N)c(C(F)(F)F)c2)C(=O)C1(CF)CF | 137 to 138 °C

Now from value to molecule:

melting point | SMILES
111 to 115 °C | O=C(O)C1CCOc2ccc(F)cc21 (stereo unspecified)
200 to 202 °C | NC(=O)CCCOc1cccc(-c2n[nH]c3c2Cc2ccccc2-3)c1
111 to 113 °C | OCC1C2OCC(O2)C(OCc2ccccc2)C1O (stereo unspecified)
253 to 255 °C | O=C1CC2(C(=O)N1)C(=O)N1CCCc3cccc2c31 (stereo unspecified)
223 °C | CCOC(=O)COc1ccc(NC(=O)c2sc(NC(=N)N)nc2C)cc1
45 °C | O=C1CCC(CCCOC2CCOCC2)(c2ccc(Cl)c(Cl)c2)CN1 (stereo unspecified)
138 to 140 °C | O=C(NCC1(O)CCCCCC1)c1c(Cl)ccc2nc(N3CC[C@H](NCCO)C3)ccc12
161 °C | O=C(O)Cc1ccc2[nH]c(=O)[nH]c2c1
192 to 193 °C | Cc1ccc(NC(=O)c2cccc(N3CCOCC3)c2)cc1N
232 to 233 °C | O=C(O)[C@@H]1CCN2C(=O)CC[C@H](N3C(=O)c4ccccc4C3=O)C(=O)N12
177 to 178 °C | O=C(CSc1n[nH]c(-c2ccco2)n1)C12CC3CC(CC(C3)C1)C2
317 to 320 °C | Cc1nc(N)c(C#N)c(-c2ccco2)n1
241 to 242 °C | CC(C)(C)c1cc(SCc2nc3cccnc3[nH]2)cc(C(C)(C)C)c1O
133 to 135 °C | O=C(CCCN1CCN(c2nc3nccc(-c4ccncc4)n3n2)CC1)c1ccc(F)cc1
254 to 255 °C | Cc1cc(CNC(=O)c2cc(N3CCN(Cc4ccc(F)cc4)C3=O)n[nH]2)n[nH]1
178 to 180 °C | CCNc1ccc(NC(=O)c2ccc(C)c(Nc3nccc(-c4cccnc4)n3)c2)cc1C(F)(F)F

melting point | SMILES
178 to 181 °C | Cc1ccc(-c2nc3ccc(N4C[C@H]5CN(C)C[C@H]5C4)nn3c2-c2ccncc2)o1
140 to 145 °C | CCC1C(=O)Nc2c(C(=O)c3ccc(Cl)cc3)cccc21 (stereo unspecified)
194 to 200 °C | CC(=O)OCC(CO)CCn1cnc2c(=O)[nH]c(N)nc21 (stereo unspecified)
233 to 234 °C | C[C@@H]1CN(C(=O)c2cc3c(C(=O)OC(C)(C)C)ncn3c3ccccc23)C[C@H](C)N1
149 to 150 °C | COc1cc(COc2nn(-c3ccccc3)cc2C=O)ccc1OCc1nc(N2CCOCC2)sc1C
194 to 196 °C | CC[C@H](C)[C@H](OCc1ccccc1)[C@H]1[C@H]([N+](=O)[O-])[C@H](C2CCCCC2)N[C@@H]1C(=O)O
139 °C | O=[N+]([O-])CS(=O)(=O)c1ccc2c(c1)CCN2
147 to 150 °C | CCn1cc(C(=O)O)c(=O)c2cc(F)c(N3CCC4CCC(C3)N4)cc21 (stereo unspecified)
208 °C | COc1ccc(S(=O)(=O)C2(C(=O)O)CCN(CCc3ccccc3)CC2)cc1
69 to 70 °C | COC(=O)c1c(C)nc(C)c(C(=O)OCC2CCCO2)c1-c1ccccc1[N+](=O)[O-] (stereo unspecified)
265 to 267 °C | O=C1C(=O)c2ccccc2C2=C1SCC1(CCN(S(=O)(=O)c3c(Cl)nc4sccn34)CC1)O2
175 to 179 °C | CC1(C)CCC(C)(C)c2cc(C(=O)CSc3ccc(C(=O)O)cc3)ccc21
246 °C | Cc1cc(C#N)cc(C(=O)Nc2ccnc(F)c2)n1
149 to 152 °C | CN(C)CCOC(=O)c1cc2cccc(O)c2[nH]1
190 °C | Cc1nc2ccccc2c(NCc2ccccc2)c1C(=O)O
233 to 234 °C | O=C(CN1CC(F)(F)Cn2c1nc(-c1ccncn1)cc2=O)c1ccccc1
